Laboratory results from patent US20220089578A1, “COMPOUNDS AS GLP-1R AGONISTS” (Terns Pharmaceuticals, Inc., priority 2020, published 2022).

Molecular target: human GLP-1R (Homo sapiens, UniProt P43220)
Assay: GLP-1R Cell Assay 1: cAMP Hunter CHO-K1 GLP1R Gs cell line, HitHunter cAMP assay
Type: cell-based
Conditions: cAMP Hunter CHO-K1 GLP1R Gs cells, percent activity normalized to Exendin-4
Procedure, shortened: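 Luminescent enzyme-fragment-complementation immunoassay quantified cellular cAMP after 30-60 min compound exposure at 37 °C in HBSS/10 mM HEPES. Data from duplicate runs were normalised to Exendin-4 and fitted nonlinearly for EC50.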

Sequence of human GLP-1R (P43220 24-463): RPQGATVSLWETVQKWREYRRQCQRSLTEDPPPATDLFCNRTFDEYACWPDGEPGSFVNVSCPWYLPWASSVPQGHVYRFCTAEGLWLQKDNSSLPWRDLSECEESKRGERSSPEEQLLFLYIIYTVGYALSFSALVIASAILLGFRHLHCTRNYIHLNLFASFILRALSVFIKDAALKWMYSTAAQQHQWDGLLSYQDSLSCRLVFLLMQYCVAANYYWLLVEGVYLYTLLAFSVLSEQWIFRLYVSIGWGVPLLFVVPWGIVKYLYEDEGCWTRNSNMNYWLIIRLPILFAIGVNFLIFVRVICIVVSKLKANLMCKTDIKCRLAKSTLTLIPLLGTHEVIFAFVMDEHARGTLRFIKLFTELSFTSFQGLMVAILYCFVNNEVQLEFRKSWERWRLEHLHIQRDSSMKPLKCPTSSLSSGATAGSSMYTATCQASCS

SMILES	EC50 (Table 2)	EC50 (Table 3)
O=C(O)c1ccc2nc(CN3CCN(c4cccc(OCC5CCC6(CC5)COC6)n4)CC3)n(C[C@@H]3CCO3)c2c1 [Compound 46, (S)-2-((4-(6-((2-oxaspiro[3.5]nonan-7-yl)methoxy)pyridin-2-yl)piperazin-1-yl)methyl)-1-(oxetan-2-ylmethyl)-1H-benzo[d]imidazole-6-carboxylic acid]	> 500 nM	–
N#Cc1ccc(Cn2ncc3ccc(N4CCN(Cc5nc6ccc(C(=O)O)cc6n5C[C@@H]5CCO5)CC4)nc32)c(F)c1 [Compound 30, (S)-2-((4-(1-(4-cyano-2-fluorobenzyl)-1H-pyrazolo[3,4-b]pyridin-6-yl)piperazin-1-yl)methyl)-1-(oxetan-2-ylmethyl)-1H-benzo[d]imidazole-6-carboxylic acid]	16.3 nM	–
N#Cc1ccc([C@@H]2CCc3c(cccc3N3CCN(Cc4nc5ccc(C(=O)O)cc5n4C[C@@H]4CCO4)CC3)O2)c(F)c1 (single isomer, unassigned) [Compound 151-P2]	–	> 500 nM
CCn1cncc1Cn1c(CN2CCC(c3cccc(OCc4nc5ccc(C#N)cc5s4)n3)CC2)nc2ccc(C(=O)O)cc21 [Compound 165, 2-((4-(6-((6-cyanobenzo[d]thiazol-2-yl)methoxy)pyridin-2-yl)piperidni-1-yl)methyl)-1-((1-ethyl-1H-imidazol-5-yl)methyl)-1H-benzo[d]imidazole-6-carboxylic acid]	–	0.0254 nM
CCn1cncc1Cn1c(CN2CC[C@]3(c4cccc(N5CCc6cc(C#N)cc(F)c6C5)n4)C[C@@H]3C2)nc2ccc(C(=O)O)cc21 [Compound 184-P2, 2-(((1S,6R)-6-(6-(6-cyano-8-fluoro-3,4-dihydroisoquinolin-2(1H)-yl)pyridin-2-yl)-3-azabicyclo[3.1.0]heptan-3-yl)methyl)-1-((1-ethyl-1H-imidazol-5-yl)methyl)-1H-benzo[d]imidazole-6-carboxylic acid]	–	0.414 nM
CN(Cc1ccc(C#N)cc1)c1cccc(N2CCN(Cc3nc4ccc(C(=O)O)cc4n3C[C@@H]3CCO3)CC2)n1 [Compound 63, (S)-2-((4-(6-((4-cyanobenzyl)(methyl)amino)pyridin-2-yl)piperazin-1-yl)methyl)-1-(oxetan-2-ylmethyl)-1H-benzo[d]imidazole-6-carboxylic acid]	54.5 nM	–
C[C@@H]1c2ccc(C#N)cc2CCN1c1cccc(N2CCN(Cc3nc4ccc(C(=O)O)cc4n3C[C@@H]3CCO3)CC2)n1 [Compound 83]	229 nM	–
N#Cc1ccc2c(c1)CN(c1ccn(C3CCN(Cc4nc5ccc(C(=O)O)cc5n4C[C@@H]4CCO4)CC3)n1)CC2 [Compound 25, (S)-2-((4-(3-(7-cyano-3,4-dihydroisoquinolin-2(1H)-yl)-1H-pyrazol-1-yl)piperidin-1-yl)methyl)-1-(oxetan-2-ylmethyl)-1H-benzo[d]imidazole-6-carboxylic acid]	> 500 nM	–
N#Cc1ccc(COc2ncccc2[C@@]23CCN(Cc4nc5ccc(C(=O)O)cc5n4CC4CCO4)C[C@@H]2C3)c(F)c1 (single isomer, unassigned) [Compound 167, 2-((6-(2-((4-cyano-2-fluorobenzyl)oxy)pyridin-3-yl)-3-azabicyclo[4.1.0]heptan-3-yl)methyl)-1-(oxetan-2-ylmethyl)-1H-benzo[d]imidazole-6-carboxylic acid]	–	266 nM
O=C(O)c1ccc2nc(CN3CCN(c4nc(OCc5ccccc5)cc5ccccc45)CC3)n(C[C@@H]3CCO3)c2c1 [Compound 157, (S)-2-((4-(3-(benzyloxy)isoquinolin-1-yl)piperazin-1-yl)methyl)-1-(oxetan-2-ylmethyl)-1H-benzo[d]imidazole-6-carboxylic acid]	–	> 500 nM
O=C(O)c1ccc2nc(CN3CCC(n4ccc(COc5ccccc5)n4)CC3)n(C[C@@H]3CCO3)c2c1 [Compound 26-P1, (S)-1-(oxetan-2-ylmethyl)-2-((4-(3-(phenoxymethyl)-1H-pyrazol-1-yl)piperidin-1-yl)methyl)-1H-benzo[d]imidazole-6-carboxylic acid]	> 500 nM	–
O=C(O)c1ccc2nc(CN3CCC(O)(c4cccc(OCc5ccccc5)n4)CC3)n(C[C@@H]3CCO3)c2c1 [Compound 18, (S)-2-((4-(6-(benzyloxy)pyridin-2-yl)-4-hydroxypiperidin-1-yl)methyl)-1-(oxetan-2-ylmethyl)-1H-benzo[d]imidazole-6-carboxylic acid]	> 500 nM	–
O=C(O)c1ccc2nc(CN3CCN(c4ccc5c(n4)N(Cc4ccccc4)CCO5)CC3)n(C[C@@H]3CCO3)c2c1 [Compound 149, (S)-2-((4-(4-benzyl-3,4-dihydro-2H-pyrido[3,2-b][1,4]oxazin-6-yl)piperazin-1-yl)methyl)-1-(oxetan-2-ylmethyl)-1H-benzo[d]imidazole-6-carboxylic acid/]	–	> 500 nM
O=C(O)c1ccc2nc(CN3CCN(c4cccc(OCc5nc6c(s5)CCCC6)n4)CC3)n(C[C@@H]3CCO3)c2c1 [Compound 131, (S)-1-(oxetan-2-ylmethyl)-2-((4-(6-((4,5,6,7-tetrahydrobenzo[d]thiazol-2-yl)methoxy)pyridin-2-yl)piperazin-1-yl)methyl)-1H-benzo[d]imidazole-6-carboxylic acid]	1.71 nM	–
O=C(O)c1ccc2nc(CN3CCC(c4cccc(OCc5nc6ccccc6s5)n4)CC3)n(C[C@@H]3CCO3)c2c1 [Compound 14, (S)-2-((4-(6-(benzo[d]thiazol-2-ylmethoxy)pyridin-2-yl)piperidin-1-yl)methyl)-1-(oxetan-2-ylmethyl)-1H-benzo[d]imidazole-6-carboxylic acid]	0.246 nM	–

The remaining lines, values ahead:

EC50 (Table 2)	EC50 (Table 3)	SMILES
78.1 nM	–	C[C@@H]1COC[C@@H](N2CCC(c3cccc(OCc4ccc(C#N)cc4F)n3)CC2)c2nc3ccc(C(=O)O)cc3n21 [Compound 96, (1R,5S)-5-(4-(6-((4-cyano-2-fluorobenzyl)oxy)pyridin-2-yl)piperidin-1-yl)-1-methyl-1,2,4,5-tetrahydrobenzo[4,5]imidazo[1,2-d][1,4]oxazepine-9-carboxylic acid]
–	7.02 nM	N#Cc1ccc2c(c1)CCC[C@@H]2Oc1cccc(C2CCN(Cc3nc4ccc(C(=O)O)cc4n3C[C@@H]3CCO3)CC2)n1 (single isomer, unassigned) [Compound 146-P2]
–	> 500 nM	O=C(O)c1ccc2nc(CN3CCN(c4ccc5c(n4)OC(c4ccccc4)CC5)CC3)n(C[C@@H]3CCO3)c2c1 (stereo partly drawn) [Compound 162, 1-(((S)-oxetan-2-yl)methyl)-2-((4-(2-phenyl-3,4-dihydro-2H-pyrano[2,3-b]pyridin-7-yl)piperazin-1-yl)methyl)-1H-benzo[d]imidazole-6-carboxylic acid]
–	87.1 nM	O=C(O)c1ccc2nc(CN3CCN(c4cc5ccccc5c(OCc5ccccc5)n4)CC3)n(C[C@@H]3CCO3)c2c1 [Compound 156, (S)-2-((4-(1-(benzyloxy)isoquinolin-3-yl)piperazin-1-yl)methyl)-1-(oxetan-2-ylmethyl)-1H-benzo[d]imidazole-6-carboxylic acid]
46.6 nM	–	C[C@@H]1COC[C@H](N2CCC(c3cccc(OCc4ccc(C#N)cc4F)n3)CC2)c2nc3ccc(C(=O)O)cc3n21 [Compound 95, (1R,5R)-5-(4-(6-((4-cyano-2-fluorobenzyl)oxy)pyridin-2-yl)piperidin-1-yl)-1-methyl-1,2,4,5-tetrahydrobenzo[4,5]imidazo[1,2-d][1,4]oxazepine-9-carboxylic acid]
0.0514 nM	–	CCn1cncc1Cn1c(CN2CCC(c3cccc(N4CCc5cc(C#N)cc(F)c5C4)n3)CC2)nc2ccc(C(=O)O)cc21 [Compound 137, 2-((4-(6-(6-cyano-8-fluoro-3,4-dihydroisoquinolin-2(1H)-yl)pyridin-2-yl)piperidin-1-yl)methyl)-1-((1-ethyl-1H-imidazol-5-yl)methyl)-1H-benzo[d]imidazole-6-carboxylic acid]
0.394 nM	–	O=C(O)c1ccc2nc(CN3CCN(c4cccc(OCc5nc6ccccc6s5)n4)CC3)n(C[C@@H]3CCO3)c2c1 [Compound 69, (S)-2-((4-(6-(benzo[d]thiazol-2-ylmethoxy)pyridin-2-yl)piperazin-1-yl)methyl)-1-(oxetan-2-ylmethyl)-1H-benzo[d]imidazole-6-carboxylic acid]
–	> 500 nM	N#Cc1ccc(N2CCc3ccc(N4CCN(Cc5nc6ccc(C(=O)O)cc6n5C[C@@H]5CCO5)CC4)nc3C2)c(F)c1 [Compound 144, (S)-2-((4-(7-(4-cyano-2-fluorophenyl)-5,6,7,8-tetrahydro-1,7-naphthyridin-2-yl)piperazin-1-yl)methyl)-1-(oxetan-2-ylmethyl)-1H-benzo[d]imidazole-6-carboxylic acid]
0.00833 nM	–	CCn1cncc1Cn1c(CN2CCC(c3cccc(OCc4ccc(C#N)cc4F)n3)CC2)nc2ccc(C(=O)O)cc21 [Compound 142, 2-((4-(6-((4-cyano-2-fluorobenzyl)oxy)pyridin-2-yl)piperidin-1-yl)methyl)-1-((1-ethyl-1H-imidazol-5-yl)methyl)-1H-benzo[d]imidazole-6-carboxylic acid]
76.2 nM	–	N#Cc1ccc(COc2cccc(C3CCN([C@H]4CCCn5c4nc4ccc(C(=O)O)cc45)CC3)n2)c(F)c1 [Compound 89, (S)-4-(4-(6-((4-cyano-2-fluorobenzyl)oxy)pyridin-2-yl)piperidin-1-yl)-1,2,3,4-tetrahydrobenzo[4,5]imidazo[1,2-a]pyridine-8-carboxylic acid]
0.176 nM	–	O=C(O)c1ccc2nc(CN3CCN(c4cccc(OCc5nc6ccc(Cl)cc6s5)n4)CC3)n(C[C@@H]3CCO3)c2c1 [Compound 113, (S)-2-((4-(6-((6-chlorobenzo[d]thiazol-2-yl)methoxy)pyridin-2-yl)piperazin-1-yl)methyl)-1-(oxetan-2-ylmethyl)-1H-benzo[d]imidazole-6-carboxylic acid]
> 500 nM	–	N#CC1(COc2cccc(N3CCN(Cc4nc5ccc(C(=O)O)cc5n4C[C@@H]4CCO4)CC3)n2)CCOCC1 [Compound 41, (S)-2-((4-(6-((4-cyanotetrahydro-2H-pyran-4-yl)methoxy)pyridin-2-yl)piperazin-1-yl)methyl)-1-(oxetan-2-ylmethyl)-1H-benzo[d]imidazole-6-carboxylic acid]
